The source of these data is PubChem BioAssay AID1963836 (Molecular Pharmacology Branch, DTP, NCI, 2024).

The subject of this assay is 857933-349-R-J2-PDC complex spheroid viability. Put plainly: Anticancer human tumor 857933-349-R-J2-PDC patient-derived colon adenocarcinoma cell line growth inhibition [POLQ]. As to conditions: for viability, T/C: stronger effect = lower value. As to the method:
Multicellular complex tumor spheroid response to Polymerase (POL) inhibitors (novobiocin, ART-558, RP6685) in combination with a variety of drugs and investigational agents in selected tumor cell lines
The POL inhibitors (novobiocin, ART-558, and RP6685) were evaluated both individually and in combination with standard of care and investigational anticancer small molecules within a complex spheroid model of solid tumors. . Complex spheroids include a stromal component modeled by human endothelial cells (HUVEC) and fibroblasts modeled by human mesenchymal stem cells (MSCs). The concentration ranges selected for each drug and investigational agent were based upon clinically achievable concentrations if the clinical Cmax of the agent was known.
Compounds. The drugs and investigational agents: novobiocin (NSC847541), ART-558 (NSC835418), RP-6685 (NSC848927), peposertib (NSC802822), ceralasertib (NSC780249), elimusertib (NSC800525), camonsertib (NSC841442), AZD-1390 (NSC803789), olaparib (NSC753686), talazoparib (NSC767125), rucaparib (NSC756644), sotorasib (NSC818433), MRTX-1133 (NSC836407), SN-38 (NSC673596), topotecan (NSC609699), epotoside (NSC141540), doxorubicin (NSC123127), gemcitabine (NSC613327), 5-fluorouracil (NSC19893), paclitaxel (NSC125973), vemurafenib (NSC761431), MSA-2 (NSC828583), SN-011 (NSC837082), adavosertib (NSC754352), prexasertib (NSC758257), carboplatin (NSC241240) and oxaliplatin (NSC266046), were obtained from the National Cancer Institute (NCI) Developmental Therapeutics Program Chemical Repository (21). The FDA-approved anticancer drug set is available from the Developmental Therapeutics Program at https://dtp.cancer.gov/organization/dscb/obtaining/. […] The stock solutions were prepared in dimethyl sulfoxide (DMSO, Sigma-Aldrich, St. Louis, MO, cat. D2650), except for the platinum compounds which were prepared in saline (Quality Biological, Gaithersburg, MD, cat. 114-055-101), at 800-fold the tested concentration and stored at -70 degrees C prior to their use. All drugs and investigational agents were tested over a range starting from a high concentration at or near the clinical Cmax and decreasing in half-log increments. If the clinical Cmax for an agent had not been determined, the highest concentration tested was 10 microM, except for SN-38, which was tested at a high concentration of 1 microM.
Cell Culture. All cells were maintained in an incubator at 37 degrees C and 5% CO2 with 95% humidity. The PDC lines were cultured according to standard operating procedures established by the NCI PDMR (https://pdmr.cancer.gov). Table 3 of the manuscript, lists the cell lines along with the number of the three cell types plated to form the mct-spheroids and media for tumor cell growth. After thawing, all PDC lines, except 997537-175-T-J1-PDC and 415267-285-R-J2-PDC, were cultured in Matrigel-coated flasks prepared with a working solution of 1X Ham's F-12 nutrient mix, without supplementation (Thermo Fisher Scientific, cat. 11765054), 100 U/mL penicillin-streptomycin (Thermo Fisher Scientific, cat. 15140122), and 2.5% Matrigel (Corning Inc., Corning, NY, cat. 354248) for the first three passages. The two PDC lines 997537-175-T-J1-PDC and 415267-285-R-J2-PDC were cultured on uncoated flasks. The 857933-349-R-J2-PDC line was cultured in 6C/Colon 1B media containing advanced DMEM/F-12 (Thermo Fisher Scientific, cat. 12634028), 10 mM HEPES (Thermo Fisher Scientific, cat. 15630080), 1X GlutaMAX supplement (Thermo Fisher Scientific, cat. 35050061), 0.1 mg/mL primocin (InvivoGen, San Diego, CA, cat. ant-pm-2), 10% defined fetal bovine serum, heat inactivated (HyClone Laboratories Inc., Logan, UT, cat. SH30070.03HI), 50% L-WRN conditioned media (ATCC, cat. CRL-3276), 1.25 mM N-Acetyl-L-cysteine (Sigma-Aldrich, cat. A9165), 10 mM nicotinamide (Sigma-Aldrich, cat. N0636), 1X B-27 supplement (Thermo Fisher Scientific, cat. 17504044), 1X N-2 supplement (Thermo Fisher Scientific, cat. […]

The structures appear in SMILES notation. pIC50: −log10 of the molar value. Several values for one entry are separate records, joined by “and”; a condition that tells them apart may be missing. Equal values may be shown once.
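Further: spheroids exposed to compounds for seven days before readout.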

Take `COc1ccc([C@@H](O)c2cc(-c3ncnc4cc(N5CCOCC5)ccc34)c(F)cc2Cl)nn1`: the viability, T/C – broadly, the ratio of treated to control – (compound 0.0316 µM) is 97.4% and 82.2% and 96.7%; the viability, T/C (compound 0.1 µM) is 85.4% and 95.2% and 123%; the viability, T/C (compound 0.316 µM) was 85.5% and 99% and 89.7%; the viability, T/C (compound 1 µM) was 102% and 100% and 95.2%; the viability, T/C (compound 3.16 µM) was 84.8% and 82.1% and 79.2%; the viability, T/C (compound 10 µM) was 71.6% and 58.9% and 66%. Further, the pIC50 (usually the negative decadic logarithm of the IC50, by convention in mol/L) (curve of compound) was less than 5.00.

Turning to `O=c1[nH]cc(F)c(=O)[nH]1` + COC1C(OC(N)=O)C(O)C(Oc2ccc3c(O)c(NC(=O)c4ccc(O)c(CC=C(C)C)c4)c(=O)oc3c2C)OC1(C)C, the negative logarithm of the IC50 (pIC50) reads like this: (curve of first compound, second compound 0.0316 µM) 5.71; (curve of first compound, second compound 0.1 µM) 5.79; (curve of first compound, second compound 0.316 µM) 5.64; (curve of first compound, second compound 1 µM) 5.65; (curve of first compound, second compound 3.16 µM) 5.56; (curve of first compound, second compound 10 µM) 5.59. Moreover, the viability, T/C was 81.7% (second compound 0.0316 µM, first compound 0.0316 µM); 110% (second compound 0.0316 µM, first compound 0.1 µM); 125% (second compound 0.0316 µM, first compound 0.316 µM); 71.1% (second compound 0.0316 µM, first compound 1 µM); 45.5% (second compound 0.0316 µM, first compound 3.16 µM); 24.6% (second compound 0.0316 µM, first compound 10 µM). The viability, T/C (second compound 0.1 µM, first compound 0.0316 µM) was 87.3%; the viability, T/C (second compound 0.1 µM, first compound 0.1 µM) was 91.5%; the viability, T/C (second compound 0.1 µM, first compound 0.316 µM) is 92.2%; the viability, T/C (second compound 0.1 µM, first compound 1 µM) was 58.1%; the viability, T/C (second compound 0.1 µM, first compound 3.16 µM) was 44.7%; the viability, T/C (second compound 0.1 µM, first compound 10 µM) was 30.3%. Besides, the viability, T/C was 99.3% (second compound 0.316 µM, first compound 0.0316 µM); 87.2% (second compound 0.316 µM, first compound 0.1 µM); 88.8% (second compound 0.316 µM, first compound 0.316 µM); 70.9% (second compound 0.316 µM, first compound 1 µM); 41% (second compound 0.316 µM, first compound 3.16 µM); 28.4% (second compound 0.316 µM, first compound 10 µM). Besides, the viability, T/C runs as follows: (second compound 1 µM, first compound 0.0316 µM) 109%; (second compound 1 µM, first compound 0.1 µM) 92.1%; (second compound 1 µM, first compound 0.316 µM) 97.3%; (second compound 1 µM, first compound 1 µM) 63.8%; (second compound 1 µM, first compound 3.16 µM) 44.5%; (second compound 1 µM, first compound 10 µM) 30%. For the same compound, the viability, T/C (second compound 3.16 µM, first compound 0.0316 µM) was 79.7%; the viability, T/C (second compound 3.16 µM, first compound 0.1 µM) is 86.3%; the viability, T/C (second compound 3.16 µM, first compound 0.316 µM) is 82.3%; the viability, T/C (second compound 3.16 µM, first compound 1 µM) is 85.3%; the viability, T/C (second compound 3.16 µM, first compound 3.16 µM) was 45.5%; the viability, T/C (second compound 3.16 µM, first compound 10 µM) was 29.3%. The viability, T/C by setting is: (second compound 10 µM, first compound 0.0316 µM) 108%; (second compound 10 µM, first compound 0.1 µM) 74.4%; (second compound 10 µM, first compound 0.316 µM) 76.3%; (second compound 10 µM, first compound 1 µM) 76.2%; (second compound 10 µM, first compound 3.16 µM) 42.2%; (second compound 10 µM, first compound 10 µM) 29.3%.

With `Nc1ccn(C2OC(CO)C(O)C2(F)F)c(=O)n1` (stereo unspecified), the viability, T/C reads like this: (compound 0.0316 µM) 73.9% and 60.7% and 67.2%; (compound 0.1 µM) 59.8% and 43.2% and 55.4%; (compound 0.316 µM) 25.9% and 10.6% and 33.7%; (compound 1 µM) 19.8% and 9.28% and 16.4%; (compound 3.16 µM) 13% and 7.52% and 11.1%; (compound 10 µM) 10.5% and 5.88% and 9.87%. The negative logarithm of the IC50 (pIC50) (curve of compound) was 6.86 and 7.20 and 6.87.
